What was measured:
[1] = molecular target: T1, GABAA2 receptors (α2, β3, γ2 receptor subunits transfected into Sf9 cells) (Homo sapiens, UniProt P18507+P47869); test: GABAA2 Binding Method ([3H]-Flunitrazepam displacement); details: [3H]-Flunitrazepam ~2 nM, α2β3γ2 Sf9 membranes, 1 hr at 4° C.
T1 construct: host or cells: Sf9 cells (membranes)
Procedure, shortened: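 Membranes from Sf9 cells expressing α2β3γ2 GABAA receptors incubated with ~2 nM (final) [3H]-flunitrazepam and test compound 1 h at 4 °C, then filtered on GF/B plates with cold-buffer washes. Flumazenil-defined controls; percent of control, IC50 and Ki calculated.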

[2] = molecular target: T2, GABAA receptor α2β3γ2 (Homo sapiens, UniProt P18507+P47869); test: Two-electrode voltage-clamp potentiation of GABA EC10 current in Xenopus oocytes, GABAA2; type: cell-based; details: percentage potentiation of GABA EC10 current divided by that of diazepam
T2 construct: expressed in transfected cells; host or cells: Xenopus laevis oocytes injected with cRNA
T2 sequence (P47869 29-451): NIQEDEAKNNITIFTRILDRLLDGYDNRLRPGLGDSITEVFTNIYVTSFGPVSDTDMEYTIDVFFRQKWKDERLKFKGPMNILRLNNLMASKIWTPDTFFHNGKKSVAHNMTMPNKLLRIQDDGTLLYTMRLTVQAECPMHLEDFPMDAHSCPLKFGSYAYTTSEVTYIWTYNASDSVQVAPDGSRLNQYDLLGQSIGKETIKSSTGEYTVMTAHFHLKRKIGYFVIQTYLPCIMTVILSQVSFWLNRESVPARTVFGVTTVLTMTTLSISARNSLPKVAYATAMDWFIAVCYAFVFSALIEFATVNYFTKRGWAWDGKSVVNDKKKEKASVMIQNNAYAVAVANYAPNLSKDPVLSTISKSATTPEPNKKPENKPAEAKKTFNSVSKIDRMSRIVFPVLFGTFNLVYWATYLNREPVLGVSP
T2 sequence (P28472 26-473 partner): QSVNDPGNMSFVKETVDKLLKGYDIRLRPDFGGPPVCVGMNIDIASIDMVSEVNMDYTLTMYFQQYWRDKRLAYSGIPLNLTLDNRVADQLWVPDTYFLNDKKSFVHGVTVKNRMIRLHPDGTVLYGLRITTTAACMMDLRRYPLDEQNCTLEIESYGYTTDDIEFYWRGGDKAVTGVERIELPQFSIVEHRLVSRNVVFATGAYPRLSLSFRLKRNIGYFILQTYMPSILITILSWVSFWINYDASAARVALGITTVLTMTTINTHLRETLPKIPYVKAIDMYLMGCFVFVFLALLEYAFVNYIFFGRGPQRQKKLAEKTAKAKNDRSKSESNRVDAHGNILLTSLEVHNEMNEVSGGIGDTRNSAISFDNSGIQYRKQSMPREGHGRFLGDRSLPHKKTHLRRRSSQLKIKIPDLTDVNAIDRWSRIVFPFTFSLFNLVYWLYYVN
T2 sequence (P18507 40-475): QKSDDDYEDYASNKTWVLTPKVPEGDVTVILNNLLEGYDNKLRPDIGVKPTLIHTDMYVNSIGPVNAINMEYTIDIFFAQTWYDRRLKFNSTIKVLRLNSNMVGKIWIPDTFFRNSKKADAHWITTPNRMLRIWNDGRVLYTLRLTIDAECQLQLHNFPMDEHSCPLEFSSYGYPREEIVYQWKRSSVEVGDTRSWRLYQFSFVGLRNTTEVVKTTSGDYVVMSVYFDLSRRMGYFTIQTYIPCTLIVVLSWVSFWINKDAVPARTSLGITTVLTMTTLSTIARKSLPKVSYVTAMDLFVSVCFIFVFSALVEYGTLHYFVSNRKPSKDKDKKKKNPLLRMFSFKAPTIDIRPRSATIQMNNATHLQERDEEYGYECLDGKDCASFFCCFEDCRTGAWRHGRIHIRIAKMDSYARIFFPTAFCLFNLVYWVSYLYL
Procedure, shortened: (§1)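 Human GABAA receptors expressed in Xenopus oocytes by cRNA injection (α:β:γ molar ratio ~1:1:10 for α1β2γ2, 1:1:1 for α2β3γ2), recorded 2-10 days later by two-electrode voltage clamp at −60 mV in ND-96, pH 7.5. Modulator preapplied 30 s before GABA at per-oocyte EC10. Peak-current percent potentiation over GABA alone, normalised to diazepam.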

[3] = molecular target: T3, GABAA receptor α1β2γ2 (Homo sapiens, UniProt P14867+P18507); test: Two-electrode voltage-clamp potentiation of GABA EC10 current in Xenopus oocytes, GABAA1; type: cell-based; details: percentage potentiation of GABA EC10 current divided by that of diazepam
T3 construct: expressed in transfected cells; host or cells: Xenopus laevis oocytes injected with cRNA
T3 sequence (P14867 28-456): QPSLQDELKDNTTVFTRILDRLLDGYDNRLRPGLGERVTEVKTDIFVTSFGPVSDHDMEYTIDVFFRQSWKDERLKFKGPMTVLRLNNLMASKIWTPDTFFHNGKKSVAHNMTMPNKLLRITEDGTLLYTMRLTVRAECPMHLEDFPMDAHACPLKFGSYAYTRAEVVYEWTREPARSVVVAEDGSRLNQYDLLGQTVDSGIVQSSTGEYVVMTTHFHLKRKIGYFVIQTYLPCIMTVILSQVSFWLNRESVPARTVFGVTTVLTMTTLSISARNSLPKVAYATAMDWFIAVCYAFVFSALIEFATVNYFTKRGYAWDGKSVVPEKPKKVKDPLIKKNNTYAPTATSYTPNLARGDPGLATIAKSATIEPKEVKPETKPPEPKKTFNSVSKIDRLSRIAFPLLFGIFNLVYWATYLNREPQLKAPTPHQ
T3 sequence (P47870 25-512 partner limits assumed): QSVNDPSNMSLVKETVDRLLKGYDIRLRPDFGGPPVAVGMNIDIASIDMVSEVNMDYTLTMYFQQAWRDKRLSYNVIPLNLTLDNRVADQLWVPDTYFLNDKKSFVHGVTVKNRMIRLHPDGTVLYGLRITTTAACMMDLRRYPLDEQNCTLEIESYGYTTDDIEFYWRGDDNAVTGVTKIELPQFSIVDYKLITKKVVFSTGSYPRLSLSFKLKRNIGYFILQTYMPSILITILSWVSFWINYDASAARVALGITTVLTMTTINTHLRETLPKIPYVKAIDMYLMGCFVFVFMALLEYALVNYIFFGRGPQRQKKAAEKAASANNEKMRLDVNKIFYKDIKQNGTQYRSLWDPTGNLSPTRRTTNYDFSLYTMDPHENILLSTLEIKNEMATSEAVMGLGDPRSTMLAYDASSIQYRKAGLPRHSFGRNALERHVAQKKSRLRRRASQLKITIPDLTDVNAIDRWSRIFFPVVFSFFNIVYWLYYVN
T3 sequence (P18507 40-475): as the sequence (P18507 40-475) above
Procedure, shortened: as §1

[4] = EEG protocol (Method JJ), spontaneous EEG in behaving rats; type: in vivo, Sprague Dawley rats
Text: In another embodiment, certain compounds of the invention may be useful in treating schizophrenia. In a particular embodiment, certain compounds of the invention may be useful in treating cognitive disorders associated with schizophrenia. The existing non-selective GABAergic agents are generally not suitable for treating information/cognitive processing deficits in schizophrenia due to the unacceptable competing side effects, such as overt sedation and memory impairment. Certain compounds of the invention are capable of selective modification of function at the specific GABAergic synapses affected by the schizophrenic disease state. Therefore, these certain compounds of the invention acting selectively at GABAA α2 subunits may be used for treating cognitive deficits in schizophrenia.
Subjects: Sprague Dawley rats weighing 300-400 g at time of surgery are used as subjects. Rats are maintained>1 week in AstraZeneca vivarium prior to surgical procedures. Rats are housed singly, maintained on a 12:12 light:dark cycle, and fed and watered ad lib for a period of>14 days following surgery. […]
During compound testing sessions, animals are initially allowed to re-acclimate to the operant chamber for 10-20′ minutes prior to a 30-minute baseline session in which performance and EEG are continuously monitored. […]

T1 sequence (P47869 29-451): as the sequence (P47869 29-451) above
T1 sequence (P28472 26-473 partner): as the sequence (P28472 26-473 partner) above
T1 sequence (P18507 40-475): as the sequence (P18507 40-475) above

Row | SMILES | Ki [1] | Relative Potentiation for GABAA2 [2] | Relative Potentiation for GABAA1 [3] | Relative Potentiation for GABAA1 ([3]; listed as 9-amino-2-cyclobutyl-5-(2,4-dimethoxypyrimidin-5-yl)-2,3-dihydro-1H-pyrrolo[3,4-) | spontaneous EEG across a range of oscillation frequencies [4] | spontaneous EEG at gamma frequencies [4]
1 | COc1cc(-c2cccc3c(N)c4c(nc23)CN(C2CCC2)C4=O)c(C#N)cn1 [Example 96, 4-(9-Amino-2-cyclobutyl-1-oxo-2,3-dihydro-1H-pyrrolo[3,4-b]quinolin-5-yl)-6-methoxyniconitrile] | 15.3 nM | 0.36 | 0.066 |  |  | 
2 | Cc1nn(C)cc1-c1c(F)ccc2c(N)c3c(nc12)CN([C@@H]1CCOC1)C3=O [Example 97, 9-Amino-5-(1,3-dimethyl-1H-pyrazol-4-yl)-6-fluoro-2-(R)-tetrahydrofuran-3-yl-2,3-dihydropyrrolo[3,4-b]quinolin-1-one] | 10.4 nM | 0.35 | 0.15 |  |  | 
3 | COc1ccc(-c2c(F)ccc3c(N)c4c(nc23)CN(C2CCC2)C4=O)c(OC)c1 [Example 100, 9-Amino-2-cyclobutyl-5-(2,4-dimethoxyphenyl)-6-fluoro-2,3-dihydropyrrolo[3,4-b]quinolin-1-one] | 0.249 nM | 0.23 | 0.044 |  |  | 
4 | Nc1c2c(nc3c(-c4cc(F)ccc4F)cccc13)CN(C1CC1)C2=O [Example 112, 9-Amino-2-cyclopropyl-5-(2,5-difluorophenyl)-2,3-dihydropyrrolo[3,4-b]quinolin-1-one] | 6.83 nM | 0.13 | −0.034 |  |  | 
5 | Nc1c2c(nc3c(-c4c(F)cccc4F)cccc13)CN(C1CC1)C2=O [Example 114, 9-Amino-2-cyclopropyl-5-(2,6-difluorophenyl)-2,3-dihydropyrrolo[3,4-b]quinolin-1-one] | 3.5 nM | 0.13 | −0.058 |  |  | 
6 | COc1ccc(-c2cccc3c(N)c4c(nc23)CN(C2CC2)C4=O)c(F)c1 [Example 115, 9-Amino-2-cyclopropyl-5-(2-fluoro-4-methoxyphenyl)-2,3-dihydropyrrolo[3,4-b]quinolin-1-one] | 14.5 nM | 0.12 | −0.05 |  |  | 
7 | COc1ncc(-c2cccc3c(N)c4c(nc23)CN(C2CCC2)C4=O)c(OC)n1 [Example 123, 9-Amino-2-cyclobutyl-5-(2,4-dimethoxypyrimidin-5-yl)-2,3-dihydropyrrolo[3,4-b]quinolin-1-one] | 4.23 nM | 0.44 | 0.13 | 0.12 |  | 
8 | Nc1c2c(nc3c(-c4ccccc4F)cccc13)CN(C1CCC1)C2=O [Example 124, 9-Amino-2-cyclobutyl-5-(2-fluorophenyl)-2,3-dihydropyrrolo[3,4-b]quinolin-1-one] | 0.945 nM | 0.14 | −0.016 |  |  | 
9 | COc1ccc(-c2cccc3c(N)c4c(nc23)CN(C2CCCC2)C4=O)cn1 [Example 147, 9-Amino-2-cyclopentyl-5-(6-methoxypyridin-3-yl)-2,3-dihydropyrrolo[3,4-b]quinolin-1-one] | 31.6 nM | 0.23 | 0.016 |  |  | 
10 | COc1ncccc1-c1c(F)ccc2c(N)c3c(nc12)CN([C@H]1CCOC1)C3=O [Example 170, 9-Amino-6-fluoro-5-(2-methoxypyridin-3-yl)-2-(S)-tetrahydrofuran-3-yl-2,3-dihydropyrrolo[3,4-b]quinolin-1-one] | 5.68 nM | 0.19 | −0.14 |  |  | 
11 | O=C1Nc2ccc(Cl)cc2C(c2ccccc2Cl)=NC1O (stereo not drawn) [Lorazepam] |  |  |  |  | broad changes | 
12 | Cc1ccc(-c2nc3ccc(C)cn3c2CC(=O)N(C)C)cc1 [zolpidem] |  |  |  |  |  | no significant increase

Source: patent publication US20080318943A1, “Compounds and Uses Thereof - 848” (ASTRAZENECA AB, priority 2007, published 2008)
